Reference: patent US20190373887A1, “ENCAPSULATED MOLUSCICIDE” (INGWERMAT LIMITED, priority 2015, published 2019)

Experiments:
rats [1] = test: acute oral toxicity in rats (LD50); type: in vivo, rat; conditions: weight for weight basis
[2] = tested on: Common garden slugs (Arion distinctus); test: slug mucosal contact test (mucus production and body weight loss); type: in vivo; conditions: for Mucus loss initial test / Mucus loss 24 test: 30-min contact, % of body weight; for Mucus loss initial test: 60 mg test substance, mean n = 6, initial treatment; for Mucus loss 24 test: second treatment 24 hours later; for Mucus loss 24 test / Remaining body weight after 24 h and 48 h: mean n = 6; for Potency - loss of body weight relative to metaldehyde after deduction of weight loss from the control: after 48 hours; for Potency - loss of body weight relative to metaldehyde after deduction of weight loss from the control / Potency - loss of mucus relative to metaldehyde: metaldehyde = 100; for Combined mucus loss: combined losses of mucus for the two tests; for toxicity in mollusc foot contact tests relative to metaldehyde: contact with the mucus membrane of molluscs; for Potency - loss of mucus relative to metaldehyde: from combined mucus loss; for Remaining body weight after 24 h and 48 h: percentage of the initial body weight; for Reduction in toxic response relative to metaldehyde: Loss of body weight (Table 3) / Reduction in toxic response relative to metaldehyde: Loss of mucus (Table 2): weight for weight basis
Procedure: To investigate relative toxicity of aldehydes to molluscs, tests were conducted using a method adapted from Adriaens et al. The Mucosal Toxicity of Different Benzalkonium Chloride Analogues Evaluated with an Alternative Test. Pharmaceutical Research, Vol. 18, pages 937-941, 2001.
Common garden slugs (Arion distinctus) weighing between 1.9 g and 5.2 g were collected from a UK suburban garden and placed into vented plastic boxes lined with paper towels moistened with phosphate buffered saline. The boxes were kept in the shade inside a greenhouse (10° C. minimum) and fed with lettuce and commercial dog food. Experiments were conducted on six slugs for each test treatment using petri dishes containing Whitman Grade 1 general purpose filter papers (90 mm diameter). Filter papers were wetted to saturation with phosphate buffered saline (pH 7.4) and allowed to drain before placing in the petri dishes. At the beginning of each test slugs were placed individually in a petri dish which had been prepared 3 hours previously as a control or with 60 mg of the test substance consisting of fine powdered metaldehyde or a liquid aldehyde. After 30-min incubation slugs were removed and returned to petri dishes with filter papers wetted only with the phosphate buffered saline. The slugs were weighed separately before and after treatment. The change in weight caused by the treatment was calculated and expressed as % (w/w) of the body weight. The petri dishes containing the test medium were also weighed before and after the treatment. The weight of mucus produced was calculated and expressed as % (w/w) of the body weight. The treatment and measurements were repeated 24 hour later and final weights taken after a second 24 hour period.

[3] = cited from earlier work; for Water solubility: at 25 C.; for VP: at 25 deg C.
rats [4] = conditions: cited from earlier work

SMILES: CCCCCCCCCC=O [1-decanal]
- oral toxicity in rats lower relative to metaldehyde (rats [1]): approximately 8 fold
- Mucus loss initial test [2]: 3.28 % w/w
- Mucus loss 24 test [2]: 2.64 % w/w
- Potency - loss of body weight relative to metaldehyde after deduction of weight loss from the control [2]: 40%
- Combined mucus loss [2]: 5.92 % w/w
- toxicity in mollusc foot contact tests relative to metaldehyde [2]: less than single fold reductions
- Potency - loss of mucus relative to metaldehyde [2]: 62%
- Remaining body weight after 24 h and 48 h ([2]; 24 h after initial treatment): 79.7 wt %
- Remaining body weight after 24 h and 48 h ([2]; 48 h after initial treatment): 74.1 wt %
- Reduction in toxic response relative to metaldehyde: Loss of body weight (Table 3) [2]: 0.40
- Reduction in toxic response relative to metaldehyde: Loss of mucus (Table 2) [2]: 0.62
- Water solubility [3]: 43.52 µg/mL
- VP [3]: 0.235 mm Hg
- LD50 acute oral toxicity (rats [4]): LD 50 3096 mg/kg

SMILES: CCCCCCC=O [1-heptanal]
- oral toxicity in rats lower relative to metaldehyde (rats [1]): approximately 8 fold
- Mucus loss initial test [2]: 2.77 % w/w
- Mucus loss 24 test [2]: 0.55 % w/w
- Potency - loss of body weight relative to metaldehyde after deduction of weight loss from the control [2]: 33%
- Combined mucus loss [2]: 3.32 % w/w
- toxicity in mollusc foot contact tests relative to metaldehyde [2]: less than single fold reductions
- Potency - loss of mucus relative to metaldehyde [2]: 35%
- Remaining body weight after 24 h and 48 h ([2]; 24 h after initial treatment): 85.2 wt %
- Remaining body weight after 24 h and 48 h ([2]; 48 h after initial treatment): 76.5 wt %
- Reduction in toxic response relative to metaldehyde: Loss of body weight (Table 3) [2]: 0.35
- Reduction in toxic response relative to metaldehyde: Loss of mucus (Table 2) [2]: 0.35
- Water solubility [3]: 1167 µg/mL
- VP [3]: 3.52 mm Hg
- LD50 acute oral toxicity (rats [4]): LD50 > 5000 mg/kg

SMILES: CCCCCCCCC=O [1-nonanal]
- VP [3]: 0.564 mm Hg
- LD50 acute oral toxicity (rats [4]): LD 50 > 5000 mg/kg

SMILES: CCCCCCCC=O [1-octanal]
- oral toxicity in rats lower relative to metaldehyde (rats [1]): approximately 8 fold
- Mucus loss initial test [2]: 3.82 % w/w
- Mucus loss 24 test [2]: 2.98 % w/w
- Potency - loss of body weight relative to metaldehyde after deduction of weight loss from the control [2]: 58%
- Combined mucus loss [2]: 6.8 % w/w
- toxicity in mollusc foot contact tests relative to metaldehyde [2]: less than single fold reductions
- Potency - loss of mucus relative to metaldehyde [2]: 72%
- Remaining body weight after 24 h and 48 h ([2]; 24 h after initial treatment): 78.6 wt %
- Remaining body weight after 24 h and 48 h ([2]; 48 h after initial treatment): 68.7 wt %
- Reduction in toxic response relative to metaldehyde: Loss of body weight (Table 3) [2]: 0.58
- Reduction in toxic response relative to metaldehyde: Loss of mucus (Table 2) [2]: 0.72
- Water solubility [3]: 394.3 µg/mL
- VP [3]: 1.49 mm Hg
- LD50 acute oral toxicity (rats [4]): LD 50 4616 mg/kg

SMILES: CC=O [Acetaldehyde, reference compound]
- VP [3]: 902 mm Hg
- LD50 acute oral toxicity (rats [4]): LD50 661 mg/kg

SMILES: CCCC=O [Butanal]
- VP [3]: 108 mm Hg

SMILES: CCCCCC=O [Hexanal]
- VP [3]: 9.57 mm Hg

SMILES: CC1OC(C)OC(C)OC(C)O1 (stereo not shown) [Metaldehyde, reference compound]
- Mucus loss initial test [2]: 5.55 % w/w
- Mucus loss 24 test [2]: 3.94 % w/w
- Potency - loss of body weight relative to metaldehyde after deduction of weight loss from the control [2]: 100%
- Combined mucus loss [2]: 9.49 % w/w
- Potency - loss of mucus relative to metaldehyde [2]: 100%
- Remaining body weight after 24 h and 48 h ([2]; 24 h after initial treatment): 68.5 wt %
- Remaining body weight after 24 h and 48 h ([2]; 48 h after initial treatment): 55.4 wt %
- VP [3]: 0.000674 mm Hg
- LD50 acute oral toxicity (rats [4]): LD50 630 mg/kg

SMILES: CC1OC(C)OC(C)O1 (stereo not shown) [Paraldehyde, reference compound]
- Water solubility [3]: 24140 µg/mL
- VP [3]: 15.7 mm Hg
- LD50 acute oral toxicity (rats [4]): LD 50 2711 mg/kg

SMILES: CCC=O [Propanal, reference compound]
- VP [3]: 317 mm Hg
